The record followed here is US20220160652A1, “USE OF VITAMIN K IN COMBINATION WITH ANTICOAGULANTS” (KAYDENCE PHARMA AS, priority 2019, published 2022).

Experiment [1] concerns VSMCs. The experiment in a line: Hypoxia (CoCl2) induced oxidative stress in VSMCs (DCFDA). The format is cell-based. Conditions: 10 μM, after 50 μM CoCl2 for 19 hours. The procedure:
This study was performed to determine whether intracellular oxidative stress in VSCMs is derived from mitochondrial dysfunction. To perform this study, VSMCs were incubated with cobalt chloride, a known stabilizer of HIF1a. Cobalt chloride binding to HIF1a prevents the degradation of HIF1a and thus results in a cellular hypoxia state. HIF1a has been implicated in cancer biology as well as a number of other pathophysiologies, specifically in areas of vascularization and angiogenesis, energy metabolism, cell survival, and tumor invasion. Under normal circumstances, after injury, HIF1a is degraded by the enzyme prolyl hydroxylase (PHD). The continued up-regulation of HIF1 a (mimicked by cobalt chloride) promotes tumor growth and metastasis through its role in initiating angiogenesis and regulating cellular metabolism to overcome hypoxia. Hypoxia promotes apoptosis in both normal and tumor cells. Additionally, hypoxia generates significant intracellular oxidative stress.
To perform the study, VSMCs (10,000 cells/well) were plated in a 96-well plate and left to adhere overnight. Next, the medium was changed to a medium supplemented with 50 μM CoCl2 for 19 hours. The next day, cells were washed and incubated for 1 hour with 20 μM DCFDA in the presence of a vehicle (solvent for CoCl2 and vitamin K2 (MK-7)/UQ10), 10 μM vitamin K2 (MK-7), or 10 μM UQ10 in medium. The medium was then changed to a medium supplemented with vehicle, vitamin K2 (MK-7)/UQ10, or CoCl2, and fluorescent was measured for 6 hours. Fluorescence intensity was normalized for cell count.

The test system of experiment [2] is VSMCs. Nature of the experiment: Warfarin-induced oxidative stress in VSMCs, effect of vitamin K2 (DCFDA). The format is cell-based. Conditions: 5 hours incubation. The procedure:
It is known that the level of reactive oxygen species in cells can be measured by measuring the conversion of 2′,7′—dichlorofluorescein diacetate (DCFDA) to the fluorescent dye 2′,7′-dichlorofluorescein (DCF). The fluorescence generated by cells subjected to DCFDA is directly proportional to the amount of oxidized DCFDA to DCF.
This study was performed to determine if vitamin K2 (MK-7) reduces warfarin-induced oxidative stress. To perform the study, VSMCs (10,000 cells/well) were plated in a 96-well plate and left to adhere overnight. Next, cells were incubated for 24 hours with 100 μM warfarin. The next day, […] DCFDA was added to the cells for 1 hour. The cells were then incubated for 5 hours with normal medium (baseline), vitamin K2 (MK-7), or warfarin. Fluorescence was measured and fluorescence intensity was normalized for cell count.

In experiment [3] the test system is transgenic Ren-2 rats [TGR(mREN-2)27]. The experiment in a line: T-TAS thrombus formation in whole blood of treated TGR (Ren-2) rats. The format is in vivo, rat. Conditions: vitamin K2 (MK-7) added. The procedure: This experiment was conducted in order to evaluate the effects of vitamin K2 (MK-7) on the anticoagulant activity of the new oral anticoagulants (NOAC) rivaroxaban and dabigatran using the T-TAS Total Thrombus-formation Analysis System. The T-TAS Total Thrombus-formation Analysis System is a microchip-based flow chamber system capable of evaluating whole-blood thrombogenicity. It is a useful tool in monitoring the efficacy of anticoagulants on thrombus formation and predicting the risk of bleeding complications. […] Four days before the start of the treatment, the first part of animals' body weight and food intake was measured in selected representative three cages (rats n=9) to calculate the appropriate amount of tested compounds required for addition to the diet to obtain the dosing indicated in Table 1. […] The body mass of the rats was measured at the beginning and at the end of treatment. At the beginning and at the end of treatment, the food intake per day was measured in representative group of animals to monitor the daily dosing of tested compounds (per kg of body mass). The thrombus formation in vitro was measured in whole blood using a microchip-based flow chamber system according to manufacturers' protocol (Total Thrombus-formation Analyser System, T-TAS; Fujimori Kogyo Co., Ltd., Tokyo, Japan). […]

For experiment [4], the system named is VSMCs. Nature of the experiment: ATP increase, 24 h incubation (luminescence). The format is cell-based. Conditions: 10 μM, p=0.014 for MK-7. The procedure: This study was performed to determine if vitamin K2 (MK-7) affects ATP generation. ATP is generated via glycolysis in the cytoplasm and via both the Krebs-cycle and oxidative phosphorylation in the mitochondria. ATP generation via glycolysis delivers only 2 ATP, whereas ATP generation in the mitochondria generates some 32 ATP.
To perform this study, VSCMs (5000 cells/well) were plated in 96-well plates and left to adhere overnight. Next, cells were incubated for 24 hours with either vehicle, vitamin K2 (MK-7) (10 μM), or UQ10 (10 μM). Hoechst was added to correct for cell number (1 μg/mL). Next, ATP was measured using mammalian lysis buffer for 5 minutes after which 50 μL ATP substrate solution was added to the wells and incubated for 10 minutes in a dark environment. Finally, the medium was transferred to a white plate to measure luminescence

Structures are written as SMILES. Entries after “also recorded” stand apart in the source; their conditions may differ.

For the compound `CC(C)=CCC/C(C)=C/CC/C(C)=C/CC/C(C)=C/CC/C(C)=C/CC/C(C)=C/CC/C(C)=C/CC1=C(C)C(=O)c2ccccc2C1=O` [vitamin K2 (MK-7)], the “hypoxia induced oxidative stress (counteraction)” value in the experiment with VSMCs [1] is “seems to counteract hypoxia induced oxidative stress”. For the same compound, the “warfarin-induced oxidative stress in VSMCs” value in the experiment on VSMCs [2] (after 24 hours 100 μM warfarin) is given as “counteracted the warfarin-induced oxidative stress; also recorded: counteracts intracellular oxidative stress”. In addition, the “normal oxidative stress in VSMCs” value in the experiment on VSMCs [2] (normal conditions) was “reduced not only normal oxidative stress; also recorded: counteracts intracellular oxidative stress”. In experiment [3], the “modification of the thrombus formation inhibition by dabigatran and rivaroxaban” value is given as “did not modify this effect significantly”. The “ATP production in VSMCs compared to the vehicle” value in the experiment on VSMCs [4] was “increased ATP production in VSMCs significantly”.
